Test results reported in patent publication US20110294778A1, “HEPATITIS C INHIBITOR COMPOUNDS” (priority 2009, published 2011).

Tests used:
[1] = test system: HCV genotype 1a (strain H77) subgenomic replicon with NS3 resistance mutation R155K in Huh-7 cells; assay: HCV replicon RNA replication assay (NS3 protease variants), genotype 1a R155K; assay type: cell-based; details: Hepatitis C virus, Huh-7, 72 h, read-out: R155K 1a EC50 (nM)
[2] = test system: HCV genotype 1b (Con-1) subgenomic replicon with NS3 resistance mutation D168V in Huh-7 cells; assay: HCV replicon RNA replication assay (NS3 protease variants), genotype 1b D168V; assay type: cell-based; details: Hepatitis C virus, Huh-7, 72 h, read-out: D168V 1b EC50 (nM)

Structure (SMILES) | EC50 [1] | EC50 [2]
CCn1ccc(C(=O)N[C@H]2CCCCC/C=C\[C@@H]3C[C@@]3(C(=O)NS(=O)(=O)C3CC3)NC(=O)[C@@H]3C[C@@H](Oc4cc(OC(C)C)nc5c(C)c(OC)ccc45)CN3C2=O)n1 [Compound 1024, (2R,6S,12Z,13aS,14aR,16aS)-N-(cyclopropylsulfonyl)-6-{[(1-ethyl-1H-pyrazol-3-yl)carbonyl]amino}-2-{[7-methoxy-8-methyl-2-(propan-2-yloxy)quinolin-4-yl]oxy}-5,16-dioxo-1,2,3,6,7,8,9,10,11,13a,14,15,16,16a-tetradecahydrocyclopropa[e]pyrrolo[1,2-a][1,4]diazacyclopentadecine-14a(5H)-carboxamide] | 3.9 nM | 0.31 nM
CCOc1cc(O[C@@H]2C[C@H]3C(=O)N[C@]4(C(=O)NS(=O)(=O)C5CC5)C[C@H]4/C=C\CCCCC[C@H](NC(=O)c4ccc(C)s4)C(=O)N3C2)c2ccc(OC)c(Br)c2n1 [Compound 1025, (2R,6S,12Z,13aS,14aR,16aS)-2-[(8-bromo-2-ethoxy-7-methoxyquinolin-4-yl)oxy]-N-(cyclopropylsulfonyl)-6-{[(5-methylthiophen-2-yl)carbonyl]amino}-5,16-dioxo-1,2,3,6,7,8,9,10,11,13a,14,15,16,16a-tetradecahydrocyclopropa[e]pyrrolo[1,2-a][1,4]diazacyclopentadecine-14a(5H)-carboxamide] | 4.1 nM | 0.32 nM
COc1ccc2c(O[C@@H]3C[C@H]4C(=O)N[C@]5(C(=O)NS(=O)(=O)C6(C)CC6)C[C@H]5/C=C\CCCCC[C@H](NC(=O)c5cc(C)n(C)n5)C(=O)N4C3)cc(OC(C)C)nc2c1C [Compound 1026, (2R,6S,12Z,13aS,14aR,16aS)-6-{[(1,5-dimethyl-1H-pyrazol-3-yl)carbonyl]amino}-2-{[7-methoxy-8-methyl-2-(propan-2-yloxy)quinolin-4-yl]oxy}-N-[(1-methylcyclopropyl)sulfonyl]-5,16-dioxo-1,2,3,6,7,8,9,10,11,13a,14,15,16,16a-tetradecahydrocyclopropa[e]pyrrolo[1,2-a][1,4]diazacyclopentadecine-14a(5H)-carboxamide] | 3.3 nM | 0.32 nM
COc1ccc2c(O[C@@H]3C[C@H]4C(=O)N[C@]5(C(=O)NS(=O)(=O)C6CC6)C[C@H]5/C=C\CCCCC[C@H](NC(=O)c5ccn(C(F)F)n5)C(=O)N4C3)cc(OC(C)C)nc2c1C [Compound 1027, (2R,6S,12Z,13aS,14aR,16aS)-N-(cyclopropylsulfonyl)-6-({[1-(difluoromethyl)-1H-pyrazol-3-yl]carbonyl}amino)-2-{[7-methoxy-8-methyl-2-(propan-2-yloxy)quinolin-4-yl]oxy}-5,16-dioxo-1,2,3,6,7,8,9,10,11,13a,14,15,16,16a-tetradecahydrocyclopropa[e]pyrrolo[1,2-a][1,4]diazacyclopentadecine-14a(5H)-carboxamide] | 8.4 nM | 0.35 nM
COc1ccc2c(O[C@@H]3C[C@H]4C(=O)N[C@]5(C(=O)NS(=O)(=O)C6(C)CC6)C[C@H]5/C=C\CCCCC[C@H](NC(=O)c5ccn(C)n5)C(=O)N4C3)cc(OC3CC3)nc2c1C [Compound 1028, (2R,6S,12Z,13aS,14aR,16aS)-2-{[2-(cyclopropyloxy)-7-methoxy-8-methylquinolin-4-yl]oxy}-N-[(1-methylcyclopropyl)sulfonyl]-6-{[(1-methyl-1H-pyrazol-3-yl)carbonyl]amino}-5,16-dioxo-1,2,3,6,7,8,9,10,11,13a,14,15,16,16a-tetradecahydrocyclopropa[e]pyrrolo[1,2-a][1,4]diazacyclopentadecine-14a(5H)-carboxamide] | 3.7 nM | 0.37 nM
CCOc1cc(O[C@@H]2C[C@H]3C(=O)N[C@]4(C(=O)NS(=O)(=O)C5(C)CC5)C[C@H]4/C=C\CCCCC[C@H](NC(=O)c4ccn(CC(F)(F)F)n4)C(=O)N3C2)c2ccc(OC)c(C)c2n1 [Compound 1029, (2R,6S,12Z,13aS,14aR,16aS)-2-[(2-ethoxy-7-methoxy-8-methylquinolin-4-yl)oxy]-N-[(1-methylcyclopropyl)sulfonyl]-5,16-dioxo-6-({[1-(2,2,2-trifluoroethyl)-1H-pyrazol-3-yl]carbonyl}amino)-1,2,3,6,7,8,9,10,11,13a,14,15,16,16a-tetradecahydrocyclopropa[e]pyrrolo[1,2-a][1,4]diazacyclopentadecine-14a(5H)-carboxamide] | 6 nM | 0.37 nM
CCOc1cc(O[C@@H]2C[C@H]3C(=O)N[C@]4(C(=O)NS(=O)(=O)C5(C)CC5)C[C@H]4/C=C\CCCCC[C@H](NC(=O)c4ccn(C)n4)C(=O)N3C2)c2ccc(OC)c(C)c2n1 [Compound 1030, (2R,6S,12Z,13aS,14aR,16aS)-2-[(2-ethoxy-7-methoxy-8-methylquinolin-4-yl)oxy]-N-[(1-methylcyclopropyl)sulfonyl]-6-{[(1-methyl-1H-pyrazol-3-yl)carbonyl]amino}-5,16-dioxo-1,2,3,6,7,8,9,10,11,13a,14,15,16,16a-tetradecahydrocyclopropa[e]pyrrolo[1,2-a][1,4]diazacyclopentadecine-14a(5H)-carboxamide] | 6.3 nM | 0.38 nM
COc1ccc2c(O[C@@H]3C[C@H]4C(=O)N[C@]5(C(=O)NS(=O)(=O)C6CC6)C[C@H]5/C=C\CCCCC[C@H](NC(=O)c5ccn(CCF)n5)C(=O)N4C3)cc(OC(C)C)nc2c1C [Compound 1031, (2R,6S,12Z,13aS,14aR,16aS)-N-(cyclopropylsulfonyl)-6-({[1-(2-fluoroethyl)-1H-pyrazol-3-yl]carbonyl}amino)-2-{[7-methoxy-8-methyl-2-(propan-2-yloxy)quinolin-4-yl]oxy}-5,16-dioxo-1,2,3,6,7,8,9,10,11,13a,14,15,16,16a-tetradecahydrocyclopropa[e]pyrrolo[1,2-a][1,4]diazacyclopentadecine-14a(5H)-carboxamide] | 4.2 nM | 0.39 nM
COc1ccc2c(O[C@@H]3C[C@H]4C(=O)N[C@]5(C(=O)NS(=O)(=O)C6CC6)C[C@H]5/C=C\CCCCC[C@H](NC(=O)c5ccno5)C(=O)N4C3)cc(OC(C)C)nc2c1C [Compound 1032, (2R,6S,12Z,13aS,14aR,16aS)-N-(cyclopropylsulfonyl)-2-{[7-methoxy-8-methyl-2-(propan-2-yloxy)quinolin-4-yl]oxy}-6-[(1,2-oxazol-5-ylcarbonyl)amino]-5,16-dioxo-1,2,3,6,7,8,9,10,11,13a,14,15,16,16a-tetradecahydrocyclopropa[e]pyrrolo[1,2-a][1,4]diazacyclopentadecine-14a(5H)-carboxamide] | 7.8 nM | 0.58 nM
Cc1ccc(C(=O)N[C@H]2CCCCC/C=C\[C@@H]3C[C@@]3(C(=O)NS(=O)(=O)C3(C)CC3)NC(=O)[C@@H]3C[C@@H](Oc4cc(OC(C)C)nc5c(C)c(O)ccc45)CN3C2=O)s1 [Compound 1033, (2R,6S,12Z,13aS,14aR,16aS)-2-{[7-hydroxy-8-methyl-2-(propan-2-yloxy)quinolin-4-yl]oxy}-N-[(1-methylcyclopropyl)sulfonyl]-6-{[(5-methylthiophen-2-yl)carbonyl]amino}-5,16-dioxo-1,2,3,6,7,8,9,10,11,13a,14,15,16,16a-tetradecahydrocyclopropa[e]pyrrolo[1,2-a][1,4]diazacyclopentadecine-14a(5H)-carboxamide] | 0.77 nM | 0.58 nM
COc1ccc2c(O[C@@H]3C[C@H]4C(=O)N[C@]5(C(=O)NS(=O)(=O)C6CC6)C[C@H]5/C=C\CCCCC[C@H](NC(=O)c5cc(C)n(C)n5)C(=O)N4C3)cc(OC(C)C)nc2c1C [Compound 1034, (2R,6S,12Z,13aS,14aR,16aS)-N-(cyclopropylsulfonyl)-6-{[(1,5-dimethyl-1H-pyrazol-3-yl)carbonyl]amino}-2-{[7-methoxy-8-methyl-2-(propan-2-yloxy)quinolin-4-yl]oxy}-5,16-dioxo-1,2,3,6,7,8,9,10,11,13a,14,15,16,16a-tetradecahydrocyclopropa[e]pyrrolo[1,2-a][1,4]diazacyclopentadecine-14a(5H)-carboxamide] | 7.7 nM | 0.67 nM
COc1ccc2c(O[C@@H]3C[C@H]4C(=O)N[C@]5(C(=O)NS(=O)(=O)C6CC6)C[C@H]5/C=C\CCCCC[C@H](NC(=O)c5ccc(C)s5)C(=O)N4C3)cc(OCC(F)(F)F)nc2c1C [Compound 1035, (2R,6S,12Z,13aS,14aR,16aS)-N-(cyclopropylsulfonyl)-2-{[7-methoxy-8-methyl-2-(2,2,2-trifluoroethoxy)quinolin-4-yl)oxy}-6-{[(5-methylthiophen-2-yl)carbonyl]amino}-5,16-dioxo-1,2,3,6,7,8,9,10,11,13a,14,15,16,16a-tetradecahydrocyclopropa[e]pyrrolo[1,2-a][1,4]diazacyclopentadecine-14a(5H)-carboxamide] | 8.2 nM | 0.77 nM
Cc1ccc(C(=O)N[C@H]2CCCCC/C=C\[C@@H]3C[C@@]3(C(=O)NS(=O)(=O)C3CC3)NC(=O)[C@@H]3C[C@@H](Oc4cc(OC(C)C)nc5c(C)c(O)ccc45)CN3C2=O)s1 [Compound 1036, (2R,6S,12Z,13aS,14aR,16aS)-N-(cyclopropylsulfonyl)-2-{[7-hydroxy-8-methyl-2-(propan-2-yloxy)quinolin-4-yl]oxy}-6-{[(5-methylthiophen-2-yl)carbonyl]amino}-5,16-dioxo-1,2,3,6,7,8,9,10,11,13a,14,15,16,16a-tetradecahydrocyclopropa[e]pyrrolo[1,2-a][1,4]diazacyclopentadecine-14a(5H)-carboxamide] | 3.2 nM | 1.3 nM
Cc1c(O)ccc2c(O[C@@H]3C[C@H]4C(=O)N[C@]5(C(=O)NS(=O)(=O)C6CC6)C[C@H]5/C=C\CCCCC[C@H](NC(=O)c5ccn(C)n5)C(=O)N4C3)cc(OC(C)C)nc12 [Compound 1037, (2R,6S,12Z,13aS,14aR,16aS)-N-(cyclopropylsulfonyl)-2-{[7-hydroxy-8-methyl-2-(propan-2-yloxy)quinolin-4-yl]oxy}-6-{[(1-methyl-1H-pyrazol-3-yl)carbonyl]amino}-5,16-dioxo-1,2,3,6,7,8,9,10,11,13a,14,15,16,16a-tetradecahydrocyclopropa[e]pyrrolo[1,2-a][1,4]diazacyclopentadecine-14a(5H)-carboxamide] | 4.3 nM | 3.7 nM
